Experiments:
Test in all cases: relative viability (nuclei count vs DMSO), 5 days (fraction); higher = more cells survive
[1] = compound: C1CC(C1)(C(=O)O)C(=O)O.[NH2-].[NH2-].[Pt+2] [Carboplatin] + CC(=O)c1c(C)c2cnc(Nc3ccc(N4CCNCC4)cn3)nc2n(C2CCCC2)c1=O [Palbociclib] (partner 0.5 µM)
In short: (§1)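 Values are medians from duplicate plates. Each reflects relative viability, defined as the nuclei count of treated wells over that of vehicle wells. Lung cancer cell lines in 1536-well plates were pin-tool dosed one day after seeding with one drug alone or with a fixed anchor-drug dose plus five library-drug doses (not always all listed) in √10 steps, then fixed, stained and imaged at 4× after 5 days.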

Carboplatin + Dasatinib = compound: C1CC(C1)(C(=O)O)C(=O)O.[NH2-].[NH2-].[Pt+2] [Carboplatin] + Cc1nc(Nc2ncc(C(=O)Nc3c(C)cccc3Cl)s2)cc(N2CCN(CCO)CC2)n1 [Dasatinib] (partner 0.075 µM)
In short: as §1

GSK126 + OSI-027 = compound: CC[C@H](C)N1C=C(C2=C(C=C(C=C21)C3=CN=C(C=C3)N4CCNCC4)C(=O)NCC5=C(C=C(NC5=O)C)C)C [GSK126] + COc1cccc2cc(-c3nc([C@H]4CC[C@H](C(=O)O)CC4)n4ncnc(N)c34)[nH]c12 [OSI-027] (partner 0.5 µM)
In short: as §1

GSK126 + AZD7762 = compound: CC[C@H](C)N1C=C(C2=C(C=C(C=C21)C3=CN=C(C=C3)N4CCNCC4)C(=O)NCC5=C(C=C(NC5=O)C)C)C [GSK126] + NC(=O)Nc1cc(-c2cccc(F)c2)sc1C(=O)N[C@H]1CCCNC1 [AZD7762] (partner 0.2 µM)
In short: as §1

| Cell Line | relative viability ([1]; first compound 0.08 µM) | relative viability ([1]; first compound 0.253 µM) | relative viability ([1]; first compound 0.8 µM) | relative viability ([1]; first compound 2.53 µM) | relative viability ([1]; first compound 8 µM) | relative viability (Carboplatin + Dasatinib; first compound 0.08 µM) | relative viability (Carboplatin + Dasatinib; first compound 0.253 µM) | relative viability (Carboplatin + Dasatinib; first compound 0.8 µM) | relative viability (Carboplatin + Dasatinib; first compound 2.53 µM) | relative viability (Carboplatin + Dasatinib; first compound 8 µM) | relative viability (GSK126 + OSI-027; first compound 0.08 µM) | relative viability (GSK126 + OSI-027; first compound 0.253 µM) | relative viability (GSK126 + OSI-027; first compound 0.8 µM) | relative viability (GSK126 + OSI-027; first compound 2.53 µM) | relative viability (GSK126 + OSI-027; first compound 8 µM) | relative viability (GSK126 + AZD7762; first compound 0.08 µM) | relative viability (GSK126 + AZD7762; first compound 0.253 µM) | relative viability (GSK126 + AZD7762; first compound 0.8 µM) | relative viability (GSK126 + AZD7762; first compound 2.53 µM) | relative viability (GSK126 + AZD7762; first compound 8 µM) |
| --- | --- | --- | --- | --- | --- | --- | --- | --- | --- | --- | --- | --- | --- | --- | --- | --- | --- | --- | --- | --- |
| NCI-H1651 | 0.514 | 0.488 | 0.507 | 0.498 | 0.413 | 0.436 | 0.397 | 0.344 | 0.435 | 0.216 | 0.718 | 0.755 | 0.699 | 0.789 | 0.697 | 0.534 | 0.416 | 0.467 | 0.537 | 0.364 |
| NCI-H1666 | 0.687 | 0.685 | 0.549 | 0.602 | 0.6 | 0.836 | 0.774 | 0.589 | 0.533 | 0.561 | 0.886 | 0.868 | 0.986 | 0.789 | 0.822 | 0.861 | 0.8 | 0.82 | 0.936 | 0.813 |
| NCI-H1734 | 0.367 | 0.342 | 0.356 | 0.362 | 0.311 | 0.471 | 0.449 | 0.454 | 0.463 | 0.443 | 0.681 | 0.532 | 0.665 | 0.579 | 0.602 | 0.597 | 0.497 | 0.526 | 0.576 | 0.531 |
| NCI-H1755 | 0.477 | 0.501 | 0.515 | 0.441 | 0.461 | 0.451 | 0.441 | 0.395 | 0.462 | 0.452 | 0.747 | 0.725 | 0.75 | 0.8 | 0.689 | 0.468 | 0.446 | 0.395 | 0.461 | 0.412 |
| NCI-H1792 | 0.674 | 0.607 | 0.639 | 0.616 | 0.569 | 0.831 | 0.776 | 0.816 | 0.692 | 0.62 | 0.643 | 0.796 | 0.679 | 0.786 | 0.675 | 0.68 | 0.712 | 0.537 | 0.58 | 0.567 |
| NCI-H1793 | 0.364 | 0.365 | 0.31 | 0.325 | 0.365 | 0.432 | 0.384 | 0.394 | 0.355 | 0.381 | 0.288 | 0.241 | 0.318 | 0.248 | 0.32 | 0.646 | 0.394 | 0.299 | 0.592 | 0.292 |
| NCI-H1915 | 0.489 | 0.509 | 0.523 | 0.448 | 0.346 | 0.288 | 0.304 | 0.315 | 0.305 | 0.255 | 0.609 | 0.622 | 0.704 | 0.655 | 0.594 | 0.762 | 0.739 | 0.663 | 0.755 | 0.676 |
| NCI-H1944 | 0.335 | 0.359 | 0.332 | 0.332 | 0.272 | 0.235 | 0.206 | 0.226 | 0.22 | 0.174 | 0.456 | 0.423 | 0.423 | 0.369 | 0.449 | 0.476 | 0.46 | 0.441 | 0.547 | 0.461 |
| NCI-H1975 | 0.572 | 0.625 | 0.56 | 0.601 | 0.518 | 0.433 | 0.374 | 0.358 | 0.366 | 0.375 | 0.867 | 0.81 | 0.747 | 0.749 | 0.722 | 0.775 | 0.703 | 0.682 | 0.784 | 0.64 |
| NCI-H1993 | 0.596 | 0.781 | 0.634 | 0.627 | 0.534 | 0.517 | 0.591 | 0.522 | 0.559 | 0.601 | 0.492 | 0.53 | 0.557 | 0.542 | 0.541 | 0.836 | 0.754 | 0.702 | 0.9 | 0.795 |
| NCI-H2085 | 0.473 | 0.486 | 0.462 | 0.456 | 0.452 | 0.243 | 0.293 | 0.243 | 0.239 | 0.255 | 0.919 | 0.716 | 0.839 | 0.683 | 0.812 | 1.03 | 0.973 | 0.927 | 0.907 | 0.957 |
| NCI-H2087 | 0.259 | 0.23 | 0.208 | 0.212 | 0.194 | 0.85 | 0.932 | 0.833 | 0.689 | 0.613 | 0.674 | 0.466 | 0.595 | 0.706 | 0.786 | 1.52 | 1.31 | 1.18 | 1.41 | 1.43 |
| NCI-H2126 | 0.333 | 0.354 | 0.336 | 0.363 | 0.353 | 0.727 | 0.693 | 0.71 | 0.57 | 0.501 | 0.725 | 0.861 | 0.721 | 0.649 | 0.707 | 1.13 | 0.988 | 0.974 | 0.945 | 1.06 |
| NCI-H2170 | 0.39 | 0.411 | 0.384 | 0.379 | 0.342 | 0.634 | 0.654 | 0.663 | 0.583 | 0.468 | 0.809 | 0.817 | 0.712 | 0.749 | 0.737 | 0.951 | 0.966 | 0.823 | 0.86 | 0.815 |
| NCI-H2342 | 0.514 | 0.483 | 0.482 | 0.531 | 0.526 | 0.328 | 0.344 | 0.311 | 0.28 | 0.294 | 0.678 | 0.616 | 0.622 | 0.626 | 0.669 | 0.543 | 0.425 | 0.477 | 0.619 | 0.58 |
| NCI-H2347 | 0.456 | 0.418 | 0.423 | 0.482 | 0.42 | 0.325 | 0.26 | 0.346 | 0.322 | 0.273 | 0.433 | 0.356 | 0.49 | 0.463 | 0.346 | 0.757 | 0.707 | 0.711 | 0.723 | 0.783 |
